Data on two compounds can be found in patent US20060122153A1, “Antineoplastic ether lipid compounds with modifications at the sn-2 carbon” (priority 2003, published 2006).

Data set [1] relates to washed human red blood cells. Description: Hemolysis assay with washed human red blood cells. The settings on record: washed human RBCs; for H10: concentration producing 10% hemolysis; for H50: concentration producing 50% hemolysis. Type of data set: cell-based. Here is the method:
The blood was transferred from 1 EDTA tube to a 50 mL conical tissue culture tube and the volume was brought up to 50 mL with PBS.
The blood was centrifuged for 10 minutes at 1500 RPM. The supernatant was removed and the blood was resuspended up to 50 mL with PBS. Next the blood was centrifuged for 10 minutes at 1500 RPM.
The supernatant was removed, and 2.0 mL of packed red blood cells was carefully transferred, using positive displacement pipet, into a fresh conical tissue culture tube. Next, 48 mL PBS was added to achieve a 4% washed RBC solution.
Next, 25, 50, 100 and 200 uM stock solutions of test sample in phosphate buffered saline (PBS) as follows:
Next, 0.5 mL of 4% washed RBC was added to 0.5 mL test sample dilutions (in duplicate). The final concentration of test sample was 50% of working stock solution.
The samples were capped or sealed with Parafilm and the samples were gently mixed. […] The samples were centrifuged for 10 minutes at 1500 RPM. […] Absorbance was measured at 550 nm vs. a water blank. Next, H10 and H50 were determined by graphing Absorbance vs. Test Sample Concentration.

Another data set relates to B16/F10 melanoma. Description: B16/F10 murine melanoma (iv./iv.) therapeutic model. Particulars: iv. treatment, lung tumor nodules. Type of data set: in vivo, mice. Here is the method: Female C57/BL6 mice (5/group) were inoculated iv. with 5×10^4 cells in 0.2 mL PBS (day 0). On days 10, 12, 14, 16, & 18 post-tumor inoculation, mice were treated iv. with the ether lipid to be tested, along with ELL-12 (L), D-EL, L-EL or Control (0.9% NaCl). Mice were sacrificed by carbon dioxide inhalation on day 22, lungs were excised, inflated and fixed with 10% Formalin. Lungs were counted “blind” for tumor nodules using a magnifier. The mean number of nodules per treatment group was determined.

For another data set, the system named is A-549/ATCC. Description: NCI growth inhibition screen, non-small cell lung panel. The settings on record: NS cell lung, from GI50s. Set-up: key: = means equivalent activity; + means that it appears to be significantly better (i.e., by ˜2x); < means it appears to be less active than ET18OCH3 (˜2x); a combination like =/+ or </+ means that activity is dependent upon the isomer; a combination like =/+ or </+ means that activity is dependent upon the isomer. The format is cell-based, human. The method, then: (§1) Candidates deemed suitable for in vivo testing were then synthesized in large scale quantities and some of this material was sent to the NCI's Developmental Therapeutics Program for a battery of growth inhibitory studies against various human tumor cell lines (60 cell lines, 9 different panels). The remainder of the material was used to assess in vivo efficacy using murine tumor models. Additionally, studies were conducted on the lead candidates to discern mechanism of action with particular emphasis on these agents apoptotic ability as measured by caspase 3 activity. The details (materials and methods) for these various assays are described further in the following discussion.
(§2) Ten compounds were also sent to NCI's Drug Discovery Program for screening against numerous human tumor cell lines (9 panels total: renal ovarian, colon, CNS, non-small cell lung, leukemia, breast, melanoma, and prostate). The data are shown in FIGS. 2a-i which also include data regarding D- and L-ET-18-OCH3 (listed as L-EL and D-EL in the figures). Upon examining the data, one is struck by how 1R and 1a′S standout in comparison to the other compounds, especially for the renal, ovarian, colon, and CNS panels.

The next data set deals with EKVX. The description is as above. The format is cell-based, human. Set-up: key: = means equivalent activity; + means that it appears to be significantly better (i.e., by ˜2x); < means it appears to be less active than ET18OCH3 (˜2x); a combination like =/+ or </+ means that activity is dependent upon the isomer; a combination like =/+ or </+ means that activity is dependent upon the isomer. The settings on record: NS cell lung, from GI50s. The method, then:
as §1, §2

For a further data set, the system named is HOP-92. Described as above. The settings on record: HOP-92, NS cell lung; from GI50s. The format is cell-based, human. Set-up: key: = means equivalent activity; + means that it appears to be significantly better (i.e., by ˜2x); < means it appears to be less active than ET18OCH3 (˜2x); a combination like =/+ or </+ means that activity is dependent upon the isomer; a combination like =/+ or </+ means that activity is dependent upon the isomer. Here is the method: as §1, §2

Another data set has as its system NCI-H23. The description is as above. Type of data set: cell-based, human. Further details: key: = means equivalent activity; + means that it appears to be significantly better (i.e., by ˜2x); < means it appears to be less active than ET18OCH3 (˜2x); a combination like =/+ or </+ means that activity is dependent upon the isomer; a combination like =/+ or </+ means that activity is dependent upon the isomer. The settings on record: NCI-H23, NS cell lung; from GI50s. Here is the method: as §1, §2

The subject of the next data set is NCI-H332M. The description is as above. Type of data set: cell-based, human. The settings on record: NS cell lung, from GI50s. Further details: key: = means equivalent activity; + means that it appears to be significantly better (i.e., by ˜2x); < means it appears to be less active than ET18OCH3 (˜2x); a combination like =/+ or </+ means that activity is dependent upon the isomer; a combination like =/+ or </+ means that activity is dependent upon the isomer. Here is the method:
as §1, §2

The next data set concerns NCI-H460. The data set is described as above. The settings on record: NCI-H460, NS cell lung; from GI50s. Type of data set: cell-based, human. Further details: key: = means equivalent activity; + means that it appears to be significantly better (i.e., by ˜2x); < means it appears to be less active than ET18OCH3 (˜2x); a combination like =/+ or </+ means that activity is dependent upon the isomer; a combination like =/+ or </+ means that activity is dependent upon the isomer. The method, then:
as §1, §2

A further data set concerns BT-549. As to the kind of experiment: NCI growth inhibition screen, breast panel. The format is cell-based, human. Particulars: for Performance as compared to ET-18-O—CH3: BT-549, Breast, from GI50s; for activity compared to ET-18-OCH3 (in words): BT-549 cell line, NCI screen. Further details: key to Performance as compared to ET-18-O—CH3: = means equivalent activity; + means that it appears to be significantly better (i.e., by ˜2x); < means it appears to be less active than ET18OCH3 (˜2x); a combination like =/+ or </+ means that activity is dependent upon the isomer; a combination like =/+ or </+ means that activity is dependent upon the isomer. Here is the method: as §1, §2

The test system of another data set is T-47D. Description: NCI growth inhibition screen, breast panel. Type of data set: cell-based, human. Further details: key to Performance as compared to ET-18-O—CH3: = means equivalent activity; + means that it appears to be significantly better (i.e., by ˜2x); < means it appears to be less active than ET18OCH3 (˜2x); a combination like =/+ or </+ means that activity is dependent upon the isomer; a combination like =/+ or </+ means that activity is dependent upon the isomer. Particulars: for Performance as compared to ET-18-O—CH3: T-47D, Breast, from GI50s; for GI50: breast cancer cell line T-47D, NCI screen. The method, then:
as §1, §2

Values joined by “and” are separate entries in the source; they are usually repeats but may differ in a detail not shown here. Equal entries are not always repeated. Some results are limits rather than exact numbers.

A word on the GI50: it is the concentration giving 50% growth inhibition. In data set [1], `CCCCCCCCCCCCCCCCCCOC[C@@H](COP(=O)([O-])OCC[N+](C)(C)C)OS(C)(=O)=O` [1a′S] came in with an H10 of 16.5 µM. Moreover, the H50 in data set [1] was found to be 21.5 µM. Moreover, the “activity against B16/F10 in mice (in words)” value in the data set with B16/F10 melanoma is on record as “exhibited activity”. Further, the “Performance as compared to ET-18-O—CH3” value in the data set with A-549/ATCC, in the data set with EKVX, in the data set with HOP-92, in the data set on NCI-H23, with NCI-H332M and in the data set on NCI-H460 was 0 throughout. The “Performance as compared to ET-18-O—CH3” value in the data set with BT-549 is listed as 0; in the data set with T-47D, “<”. In addition, in the data set on BT-549, the “activity compared to ET-18-OCH3 (in words)” value is given as “more active than ET-18-OCH3”. Further, in the data set with T-47D, the 50% growth inhibitory concentration (GI50) was not below 15 µM.

With `CCCCCCCCCCCCCCCCCCOCC(COP(=O)([O-])OCC[N+](C)(C)C)OS(C)(=O)=O` (centres unmarked) [Compound 1aR], in [1], the H10 was 16 µM and 13 µM. The H50 in [1] is 21.5 µM and 17 µM. Besides, the “activity against B16/F10 in mice (in words)” value in the data set on B16/F10 melanoma is listed as “no activity”. The “Performance as compared to ET-18-O—CH3” value in the data set with A-549/ATCC, in the data set on EKVX, in the data set with HOP-92, in the data set with NCI-H23, in the data set with NCI-H332M and in the data set on NCI-H460 was “=” in each case. Moreover, the “Performance as compared to ET-18-O—CH3” value with BT-549 and in the data set on T-47D was “+” in each case. Also, the “activity compared to ET-18-OCH3 (in words)” value in the data set on BT-549 is on record as “more active than ET-18-OCH3”. Also, in the data set on T-47D, the GI50 is less than 2.5 µM.
